Assay results as given in patent US20040166178A1, “3-O-acetyl-11-ketoboswellic acid for relaxing the skin” (L'OREAL, priority 2003, published 2004).

Tests used:
[1] = system: human striated muscle cells innervated with explants of spinal cord and spinal ganglia from rat embryos; assay: nerve-muscle coculture model, inhibition of muscle fibre contractions; assay type: cell-based; details: for contraction-inhibiting effect: test identical to Example 1
Description: Three extracts of Boswellia serrata were tested on a nerve-muscle coculture model which makes it possible to recreate a motor arc by innovating human striated muscle cells with explants of spinal cord and of spinal ganglia from rat embryos.
Human muscle cells derived from human muscle samples from a healthy donor are seeded in 15 mm-diameter wells (24-well culture dishes). After culturing for 10 days, these cells form a monolayer and fuse. At this stage, spinal cord explants from 13-day-old rat embryos, containing the spinal ganglion, are deposited onto the culture.
The first muscle fibre contractions are observed after coculturing for one week.
A muscle fibre having regular contractions (at least 60 contractions per minute) is then selected in three different culture wells and the number of contractions is counted over 30 seconds using image analysis software. The extracts tested, diluted in ethanol, are then incubated for 60 seconds in these wells, at the concentrations C1 and C2 of 0.005% and 0.01%. At the end of the incubation, the number of contractions is again counted over 30 seconds.
The percentage of inhibited contractions is then determined.

calcium channels = assay: model of calcium flux; assay type: cell-based; details: compared with beta-boswellic acid, 3-O-acetylboswellic acid and 11-ketoboswellic acid
Description: The four pentacyclic triterpene acids contained, according to the literature, in extract of Boswellia serrata, namely beta-boswellic acid, 3-O-acetylboswellic acid, 11-ketoboswellic acid and 3-O-acetyl-11-ketoboswellic acid, were tested in a model of calcium flux in order to evaluate their capacity for inhibiting calcium channels and therefore their ability to relax lines and smooth out expression lines.

[2] = anti-wrinkle activity in vivo

Compound | contraction-inhibiting effect ([1]; 5 μM) | contraction-inhibiting effect ([1]; 10 μM) | relaxing effect (capacity for inhibiting calcium channels) (calcium channels) | muscle fibre contractions ([1]; earlier demonstration by the applicant) | anti-wrinkle activity [2]
CC(=O)O[C@@H]1CC[C@@]2(C)[C@@H](CC[C@]3(C)[C@@H]2C(=O)C=C2[C@@H]4[C@@H](C)[C@H](C)CC[C@]4(C)CC[C@]23C)[C@@]1(C)C(=O)O [3-O-acetyl-11-ketoboswellic acid] | 74.7% | 87% | clearly greater than that obtained for the other three acids tested | – | –
CN1C(=O)CN=C(c2ccccc2)c2cc(Cl)ccc21 [diazepam, reference compound] | – | – | – | inhibited muscle fibre contractions | demonstrated in vivo
